Results reported in US11701355B2, “Levosimendan for treating pulmonary hypertension with heart failure with preserved ejection fraction (PH-HFpEF)” (Tenax Therapeutics, Inc., priority 2019, dated 2023).
“And” between values parts separate entries of the source, which are not always exact repeats. Equal entries are not always repeated.

Columns and labels:
[1] = test system: PH-HFpEF patients; experiment: HELP Study open-label lead-in phase: 24-hour levosimendan infusion, right heart catheterization at rest and 25 watt exercise; assay type: in vivo, human
Description: Enrolled PH-HFpEF subjects receive a lead-in 24-hour levosimendan infusion to determine their hemodynamic response and eligibility for the double-blind phase of the study. A total of 36 “responders” are randomized in the double-blind, placebo-controlled phase. “Responders” are identified as those subjects with a ≥4 mmHg reduction in PCWP during bicycle exercise (25 watts) and no more than a 10% decrease in cardiac index between the baseline measurements and repeated measurements following the initial infusion.
Study drug is administered via i.v. infusion over 24 hours weekly through Week 5 via a PICC line. Infusions (Week 2-5) are done in the subject's home by a study nurse. Patients return to the study site for a visit between the Week 3 and Week 4 infusions for assessment of subject safety/response and need for dose adjustment. Each subject is to return on Week 6 for assessment of efficacy and safety on study drug. A right heart catheter will be inserted to obtain hemodynamic measurements at rest and exercise at baseline, the following day after the lead-in 24-hour infusion, and during Week 6.
During the Lead-in phase, levosimendan, supplied as a concentrated solution (2.5 mg/mL), is mixed with diluent and administered intravenously at 0.10 μg/kg/min for 24 hours +/−30 min.
Visits during the Lead-In phase of the trial require a subject to be hospitalized for the entire infusion period, which at a minimum will last 24 hours. Once the infusion is complete, hemodynamic measurements are collected to ensure subject eligibility. Visits for Week 2 through Week 6 are calculated based on the date of the Lead-in infusion.
During the Lead-in Infusion (Day 0) the following procedures are performed: Measure vital signs (BP, PR, respiratory rate, temperature), venous sheath placement for right heart catheterization (The sheath will remain following the baseline study, and the patient is hospitalized where they receive the 24-hour levosimendan infusion (preferably through the venous sheath). The sheath is then used for access for the right heart catheterization study following the 24-hour levosimendan infusion, and then removed), right heart catheterization measurements: baseline (prior to levosimendan infusion) and post 24-hour infusion to establish qualifying baseline hemodynamics at rest and exercise and to establish qualifying response to levosimendan during exercise, assess adverse events, assess concomitant medications and/or procedures, pharmacokinetic sampling (to be taken at the end of infusion: 24+/−2 hours), genotyping sampling (to be taken at the end of infusion: 24+/−2 hours). […] A PICC line is placed in patients that meet eligibility criteria and who are randomized into the Double-Blind phase of the study.

[2] = test system: HFrEF patients; details: compared with placebo; cited from earlier work
[3] = average of 30 patients, 25 watts exercise
[4] = average of 30 patients, rest legs down
[5] = first 30 randomized patients, 25 watts exercise
[6] = first 30 randomized patients, rest
[7] = individual patients, after 24-hour lead-in infusion, 25 watts exercise
[8] = individual patients, after 24-hour lead-in infusion, rest legs down
[9] = individual patients, post vs pre, 25 watts exercise
[10] = individual patients, post vs pre, rest legs down

In the case of `C[C@@H]1CC(=O)NN=C1c1ccc(NN=C(C#N)C#N)cc1` [levosimendan, Levosimendan], the “patients who exhibited a ≥4 mmHg decrease of PCWP” value ([1]; acute (24 hours) open-label levosimendan, n=44) is reported as 85%, the “Exercise CO Change Avg” value [1, 3] is reported as 0.6 L/min and the “PCWP Exercise Change Avg” value [1, 3] is reported as −7.53 mmHg. The “RAP (Exercise) Change Avg” value [1, 3] was −4.97 mmHg, the “mPAP Exercise Change Avg” value [1, 3] was −5.1 mmHg and the “PCWP-Rest (down) Change Avg” value [1, 4] was −5.800 mmHg. The “RAP (Rest-down) Change Avg” value [1, 4] was −4.83 mmHg, the “Rest (down) CO Change Avg” value [1, 4] was 0.33 L/min and the “mPAP Rest (down) Change Avg” value [1, 4] was −5.4 mmHg. For the same compound, the “increase of cardiac output during 25 watts of exercise, average” value [1, 5] was 0.60 L/min, the “reduction of mean pulmonary arterial pressure during 25 watts of exercise, average” value [1, 5] was 5.1 mmHg and the “reduction of pulmonary capillary wedge pressure during 25 watts of exercise, average” value [1, 5] was 7.53 mmHg. The “reduction of right atrial pressure during 25 watts of exercise, average” value [1, 5] was 4.97 mmHg, the “increase of cardiac output during rest, average” value [1, 6] was 0.33 L/min and the “reduction of mean pulmonary arterial pressure during rest, average” value [1, 6] was 5.4 mmHg. The “reduction of pulmonary capillary wedge pressure during rest, average” value [1, 6] was 5.8 mmHg, the “reduction of right atrial pressure during rest, average” value [1, 6] was 4.83 mmHg and the “pulmonary capillary wedge pressure during rest after levosimendan, average” value ([1]; first 30 randomized patients, rest, baseline 23.4) was 17.6 mmHg. For the same compound, the “cardiac output during rest after levosimendan, average” value ([1]; first 30 randomized patients, baseline 5.1) was 5.5 L/min, the “cardiac output during 25 watts of exercise after levosimendan, average” value ([1]; first 30 randomized patients, baseline 6.7) was 7.4 L/min and the “right atrial pressure during rest after levosimendan, average” value ([1]; first 30 randomized patients, baseline 16.2) was 11.3 mmHg. The “right atrial pressure during 25 watts of exercise after levosimendan, average” value ([1]; first 30 randomized patients, baseline 27.9) was 23.0 mmHg, the “pulmonary capillary wedge pressure during 25 watts of exercise after levosimendan, average” value ([1]; first 30 randomized patients, baseline 33.2) was 25.7 mmHg and the “mean pulmonary arterial pressure during rest after levosimendan, average” value ([1]; first 30 randomized patients, baseline 42.4) was 37.0 mmHg. For the same compound, the “mean pulmonary arterial pressure during 25 watts of exercise after levosimendan, average” value ([1]; first 30 randomized patients, baseline 58.3) was 53.3 mmHg, the “Exercise CO Post” value [1, 7] was 3.55 l/min and 3.25 l/min and 5.5 l/min and 5.05 l/min and 9.1 l/min (2×) and 4.68 l/min and 5.725 l/min and 5.9 l/min and 9 l/min and 7.65 l/min and 11.3 l/min and 7.9 l/min and 7.1 l/min and 12.8 l/min and 5.2 l/min and 8.0 l/min and 10.5 l/min and 4.2 l/min and 13.9 l/min and 7.2 l/min and 10.6 l/min and 11.1 l/min and 5.4 l/min and 6.5 l/min (2×) and 4.23 l/min and 6.93 l/min and 6.05 l/min and 7.7 l/min and the “PCWP Exercise Post” value [1, 7] was 27 mmHg and 33 mmHg (2×) and 23 mmHg (2×) and 42 mmHg and 35 mmHg and 20 mmHg (2×) and 15 mmHg (2×) and 31 mmHg (2×) and 18 mmHg (4×) and 28 mmHg (4×) and 30 mmHg and 22 mmHg and 24 mmHg and 19 mmHg (2×) and 25 mmHg and 29 mmHg and 34 mmHg and 37 mmHg. The “RAP (Exercise) Post” value [1, 7] was 34 mmHg and 17 mmHg (2×) and 10 mmHg and 20 mmHg (4×) and 16 mmHg (3×) and 24 mmHg and 36 mmHg and 18 mmHg and 12 mmHg (3×) and 22 mmHg and 29 mmHg (2×) and 25 mmHg (3×) and 28 mmHg (2×) and 19 mmHg and 38 mmHg (2×) and 37 mmHg and 26 mmHg, the “mPAP Exercise Post” value [1, 7] was 52 mmHg (4×) and 47 mmHg (3×) and 67 mmHg and 48 mmHg and 40 mmHg and 80 mmHg and 57 mmHg and 38 mmHg (3×) and 35 mmHg and 50 mmHg and 55 mmHg and 51 mmHg (2×) and 58 mmHg and 27 mmHg and 60 mmHg and 66 mmHg and 36 mmHg and 81 mmHg and 68 mmHg (2×) and 75 mmHg and 62 mmHg and the “RAP (Rest-down) Post” value [1, 8] was 17 mmHg and 5 mmHg and 4 mmHg and 12 mmHg (6×) and 7 mmHg and 18 mmHg (2×) and 3 mmHg and 8 mmHg (2×) and 9 mmHg (2×) and 13 mmHg (2×) and 10 mmHg (3×) and 11 mmHg (2×) and 15 mmHg (2×) and 1 mmHg and 14 mmHg and 19 mmHg and 20 mmHg. For the same compound, the “Rest (down) CO Post-Levo” value [1, 8] was 3.0 l/min and 3.2 l/min and 4.5 l/min and 3.8 l/min (2×) and 6.9 l/min and 6.2 l/min and 4.2 l/min and 5.2 l/min and 6.5 l/min (2×) and 5.3 l/min (3×) and 5.6 l/min and 7.6 l/min and 4.1 l/min and 6.0 l/min and 8.6 l/min and 5.9 l/min and 4.3 l/min and 6.4 l/min and 4.0 l/min and 11.0 l/min and 4.7 l/min and 4.4 l/min and 3.9 l/min and 5.4 l/min and 5.8 l/min and 7.0 l/min, the “mPAP Rest (down) Post-Levo” value [1, 8] was 45 mmHg and 27 mmHg and 35 mmHg (2×) and 25 mmHg and 21 mmHg (2×) and 65 mmHg and 38 mmHg and 28 mmHg (2×) and 37 mmHg (2×) and 30 mmHg (2×) and 42 mmHg and 41 mmHg and 26 mmHg (2×) and 46 mmHg and 24 mmHg (2×) and 29 mmHg and 34 mmHg and 32 mmHg and 62 mmHg and 57 mmHg (2×) and 59 mmHg and 49 mmHg and the “PCWP-Rest (down) Post-Levo” value ([1]; individual patients, n=30 responders, after 24-hour lead-in infusion, rest legs down) was 17 mmHg (6×) and 19 mmHg (2×) and 12 mmHg (2×) and 21 mmHg (3×) and 18 mmHg and 23 mmHg (2×) and 14 mmHg (3×) and 16 mmHg (2×) and 29 mmHg and 8 mmHg (2×) and 22 mmHg and 20 mmHg (2×) and 15 mmHg and 13 mmHg and 27 mmHg. The “PCWP-Rest (down) Change” value ([1]; individual patients, post vs pre levosimendan lead-in infusion, rest legs down) was −3 mmHg (5×) and −8 mmHg and −11 mmHg (2×) and 1 mmHg and −12 mmHg (2×) and 3 mmHg and −6 mmHg (2×) and −18 mmHg and −13 mmHg (2×) and −2 mmHg (3×) and −5 mmHg (2×) and 2 mmHg and 0 mmHg and −10 mmHg and −9 mmHg and −14 mmHg and −1 mmHg (2×) and −4 mmHg, the “Exercise CO Change” value [1, 9] was 0.4 l/min (2×) and 0.0 l/min (2×) and 0.8 l/min (3×) and −0.3 l/min (2×) and −0.2 l/min (2×) and 0.3 l/min and 1.7 l/min (2×) and 0.2 l/min (2×) and 1.8 l/min (2×) and 1.9 l/min and −1.7 l/min and 4.8 l/min and 1.5 l/min and 0.1 l/min and −0.5 l/min (2×) and −1.0 l/min and 0.9 l/min and 1.0 l/min and 1.4 l/min and 1.3 l/min and the “PCWP Exercise Change” value [1, 9] was −8 mmHg (3×) and −7 mmHg (4×) and −13 mmHg and −5 mmHg (7×) and −10 mmHg and −4 mmHg (3×) and −22 mmHg and −14 mmHg (2×) and −6 mmHg (6×) and −9 mmHg (2×). For the same compound, the “RAP (Exercise) Change” value [1, 9] was −8 mmHg (5×) and −4 mmHg and −3 mmHg (3×) and −6 mmHg (2×) and −12 mmHg and −11 mmHg and 1 mmHg (3×) and −18 mmHg and −9 mmHg and −5 mmHg (2×) and −14 mmHg and −2 mmHg (3×) and 3 mmHg and 6 mmHg and 0 mmHg (2×) and −15 mmHg and −1 mmHg, the “mPAP Exercise Change” value [1, 9] was −7 mmHg and −3 mmHg (4×) and −15 mmHg (2×) and −5 mmHg (2×) and 2 mmHg and −22 mmHg and −13 mmHg (2×) and 4 mmHg (2×) and −8 mmHg (2×) and −9 mmHg and 12 mmHg and −4 mmHg (2×) and −2 mmHg and 1 mmHg (3×) and 6 mmHg and −11 mmHg and −12 mmHg (2×) and −6 mmHg and the “RAP (Rest-down) Change” value [1, 10] was −3 mmHg (3×) and −4 mmHg (5×) and 0 mmHg (3×) and −5 mmHg (6×) and 1 mmHg and −23 mmHg and −1 mmHg and −7 mmHg (3×) and −6 mmHg (2×) and −2 mmHg (2×) and −9 mmHg (2×) and −8 mmHg. For the same compound, the “Rest (down) CO Change” value [1, 10] was 0.17 l/min and 0.23 l/min (2×) and 0.27 l/min and 0.43 l/min and 1.06 l/min (2×) and 0.05 l/min and 0.62 l/min and 1.40 l/min and −0.07 l/min and 0.67 l/min and 2.03 l/min and −0.97 l/min and 1.03 l/min and 1.60 l/min and 0.00 l/min and 0.20 l/min and −0.53 l/min (2×) and 0.07 l/min and −0.47 l/min and 0.13 l/min and −1.07 l/min and −1.87 l/min and −0.30 l/min and 0.85 l/min and 1.50 l/min and 1.20 l/min and 0.87 l/min, the “mPAP Rest (down) Change” value [1, 10] was −5 mmHg (2×) and −8 mmHg (2×) and −11 mmHg (2×) and 1 mmHg and −10 mmHg (2×) and 5 mmHg (3×) and −2 mmHg (2×) and −22 mmHg and −12 mmHg (2×) and 2 mmHg (2×) and −9 mmHg (4×) and 3 mmHg and −6 mmHg and −4 mmHg and −13 mmHg and −14 mmHg and 6 mmHg and 0 mmHg and the “cardiac output, stroke volume, ejection fraction, and heart rate” value [2] was “increased”. For the same compound, the “systolic blood pressure, diastolic blood pressure, pulmonary capillary wedge pressure, right atrial pressure, and peripheral vascular resistance” value [2] was “reduced”.
